Common to all, as to type: cell-based
One assay has as its system YAP-TEAD interaction. As to the kind of experiment: SK-HEP-1 reporter assay (8x TEAD responsive elements driving NanoLuc luciferase). As to conditions: Homo sapiens, SK-HEP1, SK-HEP-1 cells, 24 hour incubation. The procedure, abridged: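 SK-HEP-1 cells carrying a stably integrated 8× TEAD-element NanoLuc reporter, seeded 24 h before dosing, were treated in duplicate with a 10-point dose series (top 30 μM final, 0.3% DMSO) for 24 h at 37°C, 5% CO2. Luciferase activity read by NanoGlo luminescence; IC50 derived from it.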

In a further assay the test system is NCI-H226 cells. The assay can be described thus: Viability assay in NCI-H226 (Yap-dependent) cells, CyQUANT. The note with it: Homo sapiens, NCI-H226 YAP dependent cell line, 96 hour incubation, group symbols. The protocol:
(§1) Viability Assay in NCI-H226 (Yap-Dependent) and SW620 Yap KO (Yap Independent) Cells
(§2) The ability of YAP-TEAD inhibitors to inhibit tumor cell growth was evaluated using two different cell lines: NCI-H226, which is a YAP dependent cell line, and SW620 cells, where YAP and TAZ were knocked out using CRISPR to generate a YAP independent cell line.
(§3) For the assay, cells were treated in duplicates with the test compounds in a 10-point dose, 1:3 dilution steps, with the top concentration starting at 30 μM (final concentration in assay). After a 96 hour incubation at 37° C., 95% rH, and 5% CO2, a cell-permeant DNA-binding dye that stains only healthy cells (CyQUANT®, Promega) was added to the cells, allowing the quantification of cell viability.
(§4) Cell Media: The NCI-H226 cells were cultured in the following media: RPMI 1640, +10% FBS, +1× GlutaMAX, +10 mM HEPES, +0.5% Pen/Strep. The SW620-KO cells were cultured in the following media: DMEM/F-12, +10% FBS, +1× GlutaMAX, +10 mM HEPES, +0.5% Pen/Strep.
(§5) Reagents: The reagents used are listed below:
(§6) Cell culture: The cells were examined using an inverted microscope to check for health, cell density, etc. To dissociate adherent cells, the monolayer of cells was washed once with pre-warmed PBS. After removing the PBS, 3 ml pre-warmed Accutase was added to a F75 flask, dispersed evenly and the flask was allowed to sit in incubator for ˜4-5 minutes.
(§7) When a single cell suspension was obtained, 7 ml of prewarmed growth media was added and resuspended with the cells. The cell suspension was transferred to a sterile 15 ml conical centrifuge tube, and spun for 5 min at 300×g, RT. The supernatant was discarded and the pellet was resuspended in 10 ml of pre-warmed growth media.
(§8) The total cell count was determined, and 20 μl of the desired cell number was added to each well of a 384 well plate using a Multidrop Combi. The plates were then incubated for 24 hours at 37° C., 95% rH, and 5% CO2.
(§9) Compound treatment: 24 hours after seeding, the cells were treated with compounds.
(§10) A 1:333 dilution of compounds, diluted in DMSO, was made to get a final concentration of 0.3% DMSO per well. To transfer the compounds to the assay plate, 120 nl was shot from Labcyte low dead volume plates to the cell plates containing 20 μl media/well with the ECHO 555 liquid handling system. After treatment, the cells were fed with 20 μl fresh pre-warmed assay media using a Multidrop combi.
(§11) The assay plates were then incubated for 96 h at 37° C., 95% rH, and 5% CO2.
(§12) 96 h after treatment 30 μl of CyQuant® reagent was added to the assay plates using a Multidrop combi in the dark. The plates were then incubated for 1 hour at 37° C., 95% rH and 5% CO2. Thereafter, the assay plates were removed from the incubator and allowed to equilibrate to RT for 30 min in the dark without lid. Finally, they were measured using an EnVision microplate reader with a FITC bottom read program.

In another assay the test system is SW620 Yap KO cells. The assay can be described thus: Viability assay in SW620 Yap KO (Yap independent) cells, CyQUANT. As to conditions: Homo sapiens, SW-620, SW620 YAP and TAZ knocked out (YAP independent), 96 hour incubation. The protocol:
as §1, §2, §3, §4, §5, §6, §7, §8, §9, §10, §11, §12

Setting [1] is: number, or n.d. (x) = not detectable below threshold x.
Setting [2] is: n.d. (x) = not detectable below threshold x.

The structures appear in SMILES notation. pIC50: −log10 of the molar value.

What is called pIC50 is −log10 of the IC50, conventionally taken in molar units.

Turning to `COCCC(CO)NC(=O)c1cc2c3cn(C)nc3n(-c3ccc(C(F)(F)F)cc3)c2s1` (racemic) [Compound 63, N-(1-hydroxy-4-methoxybutan-2-yl)-4-methyl-7-[4-(trifluoromethyl)phenyl]-9-thia-4,5,7-triazatricyclo[6.3.0.0^2,6]undeca-1(8),2,5,10-tetraene-10-carboxamide], the pIC50 in the assay with YAP-TEAD interaction (setting [1]) is under 5.02; in the assay on NCI-H226 cells, 7.00 to 9.00; in the assay with SW620 Yap KO cells (setting [2]) it was under 5.52.
On to `Cn1cc2c3cc(C(=O)N[C@@H](CCO)c4cncs4)sc3n(-c3ccc(C(F)(F)F)cc3)c2n1` (single isomer, unassigned) [Compound 41], for which the pIC50 was 5.00 to 7.00 in the assay with YAP-TEAD interaction (group symbols), 6.00 to 7.00 in the assay with NCI-H226 cells and under 5.52 with SW620 Yap KO cells (setting [2]).
Regarding `Cn1cc2c3cc(C(=O)N[C@H](CCO)c4cncs4)sc3n(-c3ccc(C(F)(F)F)cc3)c2n1` (single isomer, unassigned) [Compound 42], the figures for the pIC50 with YAP-TEAD interaction (setting [1]), in the assay with NCI-H226 cells and in the assay with SW620 Yap KO cells (group symbols) were under 5.02, 5.00 to 6.00 and 5.00 to 6.00, respectively.
Regarding `Cn1cc2c3cc(C(=O)N=[S@](C)(=O)CCCO)sc3n(-c3ccc(C(F)(F)F)cc3)c2n1` (single isomer, unassigned) [Compound 62], the values for the negative-log IC50 (pIC50) in the assay on YAP-TEAD interaction (setting [1]), with NCI-H226 cells and with SW620 Yap KO cells (setting [2]) were under 6.52, 6.00 to 7.00 and under 5.52, respectively.
`Cn1ccc([C@@H](CO)NC(=O)c2cc3c4cn(C)nc4n(-c4ccc(C(F)(F)F)cc4)c3s2)n1` (single isomer, unassigned) [Compound 130]: the pIC50 in the assay with YAP-TEAD interaction (group symbols) was 7.00 to 8.00; in the assay on NCI-H226 cells, 7.00 to 9.00; in the assay on SW620 Yap KO cells (setting [2]) it was under 4.52.
For the compound `Cn1cc2c3sc(C(=O)O)cc3n(-c3ccc(OC(F)F)cc3)c2n1` [Compound 10, 7-[4-(difluoromethoxy)phenyl]-10-methyl-3-thia-7,9,10-triazatricyclo[6.3.0.0^2,6]undeca-1(11),2(6),4,8-tetraene-4-carboxylic acid], the pIC50 in the assay with YAP-TEAD interaction (group symbols) is 7.00 to 8.00; with NCI-H226 cells it was 6.00 to 7.00; in the assay with SW620 Yap KO cells (setting [2]) it was under 4.52.
Turning to `Cn1cc2c3cc(C(=O)O)sc3n(-c3ccc(C(F)(F)F)cc3)c2n1` [Compound 19, 4-methyl-7-[4-(trifluoromethyl)phenyl]-9-thia-4,5,7-triazatricyclo[6.3.0.0^2,6]undeca-1(8),2,5,10-tetraene-10-carboxylic acid], the values for the pIC50 with YAP-TEAD interaction (group symbols), in the assay on NCI-H226 cells and in the assay on SW620 Yap KO cells (setting [2]) were 8.00 to 9.00, 7.00 to 9.00 and under 4.52, respectively.
With `Cn1cnc2c1c1sc(C(=O)O)cc1n2-c1ccc(C(F)(F)F)cc1` [Compound 20, 3-methyl-7-[4-(trifluoromethyl)phenyl]-11-thia-3,5,7-triazatricyclo[6.3.0.0^2,6]undeca-1(8),2(6),4,9-tetraene-10-carboxylic acid], the pIC50 was 7.00 to 8.00 with YAP-TEAD interaction (group symbols), 6.00 to 7.00 in the assay on NCI-H226 cells and under 4.52 with SW620 Yap KO cells (setting [2]).
As to `CNC(=O)c1cc2c(s1)c1c(ncn1C)n2-c1ccc(C(F)(F)F)cc1` [Compound 21, N,3-dimethyl-7-[4-(trifluoromethyl)phenyl]-11-thia-3,5,7-triazatricyclo[6.3.0.0^2,6]undeca-1(8),2(6),4,9-tetraene-10-carboxamide], the pIC50 was 5.00 to 7.00 in the assay on YAP-TEAD interaction (group symbols), 6.00 to 7.00 with NCI-H226 cells and 5.00 to 6.00 in the assay with SW620 Yap KO cells (group symbols).
Regarding `Cc1nc2c3sc(C(=O)O)cc3n(-c3ccc(C(F)(F)F)cc3)c2s1` [Compound 22, 4-methyl-7-[4-(trifluoromethyl)phenyl]-5,11-dithia-3,7-diazatricyclo[6.3.0.0^2,6]undeca-1(8),2(6),3,9-tetraene-10-carboxylic acid], the pIC50 in the assay with YAP-TEAD interaction (group symbols) was 7.00 to 8.00; in the assay on NCI-H226 cells it was 6.00 to 7.00; with SW620 Yap KO cells (setting [2]), under 4.52.
Take `Cc1nc2c3sc(C(=O)O)cc3n(-c3ccc(OC(F)(F)F)cc3)c2s1` [Compound 25, 4-methyl-7-[4-(trifluoromethoxy)phenyl]-5,11-dithia-3,7-diazatricyclo[6.3.0.0^2,6]undeca-1(8),2(6),3,9-tetraene-10-carboxylic acid]: the pIC50 was 7.00 to 8.00 in the assay with YAP-TEAD interaction (group symbols), 6.00 to 7.00 in the assay with NCI-H226 cells and under 4.52 in the assay on SW620 Yap KO cells (setting [2]).
`Cn1nc2c3sc(C(=O)O)cc3n(-c3ccc(OC(F)(F)F)cc3)c2n1` [Compound 27, 4-methyl-7-[4-(trifluoromethoxy)phenyl]-11-thia-3,4,5,7-tetraazatricyclo[6.3.0.0^2,6]undeca-1(8),2,5,9-tetraene-10-carboxylic acid]: the pIC50 is 7.00 to 8.00 with YAP-TEAD interaction (group symbols), 6.00 to 7.00 with NCI-H226 cells and under 4.52 in the assay with SW620 Yap KO cells (setting [2]).
In the case of `Cn1cc2c3cc(C(=O)NCc4ccncc4)sc3n(-c3ccc(C(F)(F)F)cc3)c2n1` [Compound 31, 4-methyl-N-[(pyridin-4-yl)methyl]-7-[4-(trifluoromethyl)phenyl]-9-thia-4,5,7-triazatricyclo[6.3.0.0^2,6]undeca-1(8),2,5,10-tetraene-10-carboxamide], the negative-log IC50 (pIC50) in the assay with YAP-TEAD interaction (group symbols) was under 5.00; in the assay with NCI-H226 cells, 7.00 to 9.00; in the assay on SW620 Yap KO cells (setting [2]), under 5.49.
Take `C[C@H](CO)NC(=O)c1cc2c3cn(C)nc3n(-c3ccc(C(F)(F)F)cc3)c2s1` [Compound 33, N-[(2R)-1-hydroxypropan-2-yl]-4-methyl-7-[4-(trifluoromethyl)phenyl]-9-thia-4,5,7-triazatricyclo[6.3.0.0^2,6]undeca-1(8),2,5,10-tetraene-10-carboxamide]: the pIC50 with YAP-TEAD interaction (group symbols) is 7.00 to 8.00; in the assay with NCI-H226 cells, 7.00 to 9.00; in the assay with SW620 Yap KO cells (setting [2]), under 5.49.
With `Cn1cc2c3cc(C(=O)N[C@@H](CO)c4ccccn4)sc3n(-c3ccc(C(F)(F)F)cc3)c2n1` [Compound 35, N-[(1R)-2-hydroxy-1-(pyridin-2-yl)ethyl]-4-methyl-7-[4-(trifluoromethyl)phenyl]-9-thia-4,5,7-triazatricyclo[6.3.0.0^2,6]undeca-1(8),2,5,10-tetraene-10-carboxamide], the pIC50 in the assay on YAP-TEAD interaction (group symbols) was 7.00 to 8.00; in the assay with NCI-H226 cells it was 7.00 to 9.00; in the assay on SW620 Yap KO cells (setting [2]) it was under 5.49.
In the case of `Cn1cc2c3sc(C(=O)O)cc3n(C[C@H]3C[C@@H](C(F)(F)F)C3)c2n1` [Compound 36, 10-methyl-7-{[(1s,3s)-3-(trifluoromethyl)cyclobutyl]methyl}-3-thia-7,9,10-triazatricyclo[6.3.0.0^2,6]undeca-1(11),2(6),4,8-tetraene-4-carboxylic acid], the pIC50 in the assay on YAP-TEAD interaction (group symbols) is 5.00 to 7.00; in the assay with NCI-H226 cells, 6.00 to 7.00; in the assay on SW620 Yap KO cells (setting [2]), under 4.52.
Regarding `Cn1cc2c3sc(C(=O)O)cc3n(C[C@H]3C[C@H](C(F)(F)F)C3)c2n1` [Compound 37, 10-methyl-7-{[(1r,3r)-3-(trifluoromethyl)cyclobutyl]methyl}-3-thia-7,9,10-triazatricyclo[6.3.0.0^2,6]undeca-1(11),2(6),4,8-tetraene-4-carboxylic acid], the results for the pIC50 in the assay on YAP-TEAD interaction (group symbols), in the assay with NCI-H226 cells and in the assay on SW620 Yap KO cells (setting [2]) were 5.00 to 7.00, 5.00 to 6.00 and under 4.52, respectively.
As for `Cn1cc2c3cc(C(=O)O)sc3n(-c3ccc(SC(F)(F)F)cc3)c2n1` [Compound 40, 4-methyl-7-{4-[(trifluoromethyl)sulfanyl]phenyl}-9-thia-4,5,7-triazatricyclo[6.3.0.0^2,6]undeca-1(8),2,5,10-tetraene-10-carboxylic acid], the pIC50 was 7.00 to 8.00 in the assay with YAP-TEAD interaction (group symbols), 7.00 to 9.00 in the assay on NCI-H226 cells and under 4.52 in the assay on SW620 Yap KO cells (setting [2]).
Consider `C[C@H](O)CNC(=O)c1cc2c3cn(C)nc3n(-c3ccc(C(F)(F)F)cc3)c2s1` [Compound 43, N-[(2S)-2-hydroxypropyl]-4-methyl-7-[4-(trifluoromethyl)phenyl]-9-thia-4,5,7-triazatricyclo[6.3.0.0^2,6]undeca-1(8),2,5,10-tetraene-10-carboxamide], for which the pIC50 was under 5.02 in the assay with YAP-TEAD interaction (setting [1]), 7.00 to 9.00 in the assay with NCI-H226 cells and under 5.52 with SW620 Yap KO cells (setting [2]).

The record behind these values is patent publication US20260159525A1, “TRICYCLIC HETEROCYCLES” (Merck Patent GmbH, priority 2021, published 2026).
